Measured values as given in a melting point compilation (Tetko et al.; mined from patent text by program, amines drawn as free bases though some values may be those of a salt).

| SMILES | melting point [°C] |
| --- | --- |
| CC(=CC(=O)O)c1ccc([N+](=O)[O-])cc1 | 167 to 169 |
| Cc1noc(NS(=O)(=O)c2ccsc2C(=O)Nc2ccc(C(C)(C)C)cc2)c1Br | 76 to 86 |
| CC(C)(C)C(O)(COc1ccc(Cl)cc1)Cn1cncn1 (centres undefined) | 57 |
| COc1cc2cc(C#N)c(N)cc2cc1OCc1ccccc1 | 241 to 243 |
| CCCCN1CCC(CNC(=O)c2ccc(N)n3cc(C(C)C)nc23)CC1 | 138 |
| COc1ccc(COCc2nc(C(C)C)c(I)[nH]2)cc1 | 78 to 79 |
| CC(C)C(C)NC1=Nc2ccc(Cl)cc2S(=O)(=O)N1C (centres undefined) | 102 to 105 |
| CC(C)NC1=NS(=O)(=O)c2cc(Cl)cc(Cl)c2N1 | > 230 |
| CN1CC=C(c2c[nH]c3ccc(N)cc23)C(F)C1 (centres undefined) | 176 to 178 |
| CC(C)(C)NC(=O)[C@@H]1CN(C(=O)OC(C)(C)C)CCN1C(=O)OCc1ccccc1 | 134 to 135 |
| COCCc1sc2ncnc(N)c2c1-c1ccc(NC(=O)c2ccccc2)cc1 | 200 to 202 |
| C1=C(/C=C/c2ccsc2)CCN(Cc2nc3ccccc3[nH]2)C1 | 216 to 218 |
| CNc1c([N+](=O)[O-])ccc(Cl)c1Cl | 82 |
| CC(C)(C)c1ccc(C(=O)CCCCCc2ccccc2)cc1NC(=O)CC1c2ccccc2Oc2ccccc21 | 119 to 120 |
| O=C(O)CSC(c1ccccc1)(c1ccccc1)c1ccccc1 | 158 to 160 |
| O=Cc1c(OCCCCC(=O)O)ccc(C(=O)O)c1O | 165 to 166 |
| CSc1ncc2c(Cl)cc(I)n2n1 | 216 to 220 |
| CCNc1cccnc1N1CCN(C(=O)c2ccc(C(=O)OC)cc2)CC1 | 96 to 97 |
| CC(C)OC(=O)N1CCC(c2nc3cc(-c4ccc(C=O)cc4)ccc3o2)CC1 | 167 to 170 |
| CC(C)C(NC(=O)c1ccccc1)C(O)C(F)(F)F (centres undefined) | 150 |
| CNC(Cc1ccccc1NC(=O)C(C)(C)C)c1cccs1 (centres undefined) | 78.5 to 82 |
| NNC(=S)NN=Cc1ccco1 | 186 to 187 |
| CC(=O)Nc1cc(OC(F)F)c(OC(F)F)cc1[N+](=O)[O-] | 65 to 67 |
| Cc1cc(C)c(N2C(=N)N(c3c(C)cccc3C)CC2C)c(C)c1 (centres undefined) | 128 to 130 |
| O=c1[nH]c2c(c3nc(-c4ccccc4)nn13)CN(Cc1ccccc1)CC2 | 257 to 259 |

| SMILES | melting point [°C] |
| --- | --- |
| CCOC(=O)C1=C(C)NC(=O)N(C(=O)OCC)C1c1cccc([N+](=O)[O-])c1 (centres undefined) | 107 to 108 |
| CCCCc1nc(Cl)c(C(=O)O)n1Cc1ccc2oc(-c3ccccc3-c3nnn[nH]3)c(Br)c2c1 | 183 to 185 |
| Clc1ccc(CCOc2ncnc3ncccc23)cc1 | 126 to 128 |
| CN1Cc2c(C#CCO)ncn2-c2ccccc2C1=O | 240 to 241 |
| CN(C=O)c1ccccc1C(=O)COC(=O)c1ccccc1 | 100 to 102 |
| CN(C)c1nc(-c2cccc3ccccc23)co1 | 30 to 32 |
| Cc1ncc2c(c1O)COC2(C)c1ccccc1 (centres undefined) | 245 |
| O=C1c2ccccc2CN1C1CCN(C/C=C\CC2c3ccccc3-c3ccccc32)CC1 | 112 to 116 |
| Cc1ccn(-c2ccc(C)c(C(=O)N3Cc4cccnc4Nc4ccccc43)c2)n1 | 209 to 210 |
| CCCN1CCC(O)(c2cccc(F)c2F)C1 (single isomer, unassigned; (-)) | 95 to 98 |
| COc1cc2c(cc1O)CCN(Cc1ccccc1OC)C2 | 128 to 129 |
| COc1cc2c(-c3cc4cccnc4[nH]3)cn(C)c2cc1OC(C)C | 216 |
| O=C(N[C@H]1CC[C@H](CCN2CCC(c3cccc4c3CCO4)CC2)CC1)c1ccccc1 | 220 |
| CC(C)c1ccc(S(=O)(=O)O)cc1 | 35.2 to 36.7 |
| CCn1nc(Cl)c2ccn(-c3ccc(C)cc3C)c2c1=O | 94 to 95 |
| COc1cc(OC)cc(S(=O)(=O)n2c(CCCC(=O)O)cc3nc(Cl)ccc32)c1 | 136 to 138 |
| Cc1cc([Si](C)(C)C)c(C)cc1[Si](C)(C)C | 56 to 57.5 |
| COc1cc(OS(C)(=O)=O)ccc1C1=NC2=NCC(=O)NC2=N1 | > 260 |
| CCOC(=O)c1cc(CC)sc1Nc1ccc(N)cc1N | 152 to 155 |
| O=c1[nH]ncc2cc(Cl)ccc12 | 272 to 273 |
| COC1=CC(=O)c2c(c(COc3cc(C=Cc4cc(OC)c(OC)c(OC)c4)ccc3OC)c(C)n2C)C1=O | 192 to 194 |
| CCCSc1nc2ccc(Br)cc2c(=O)n1CCC | 65 to 67 |
| C=CCOC(=O)c1ccc(S(C)=O)c([N+](=O)[O-])c1 (centres undefined) | 119 to 121 |
| CCCCCCOc1nc(-c2ccccc2)sc1-c1ccccc1 | 70 to 72 |
| Cc1cc(C(=O)c2ccccc2)c(OCCCCCCCCO)cc1N(C)C | 56.9 |

| SMILES | melting point [°C] |
| --- | --- |
| CC1(C)N=C(c2ccccc2Cl)c2cc([N+](=O)[O-])ccc2NC1=O | 125 to 127 |
| Cc1c(Cl)ccc(S(C)(=O)=O)c1Cl | 125 to 127 |
| O=C(OC1CCCCC1)c1ncn2c1[C@@H]1CCN1C(=O)c1cc(F)ccc1-2 | 231 to 232 |
| CC(C)(C)OC(=O)N[C@H](C(=O)N1CCC[C@H]1C(=O)NC1CCc2nc(N)sc2C1)C(c1ccccc1)c1ccccc1 (some centres undefined) | 127 to 130 |
| CC(C)(Cl)C(=O)c1ccc(C(Br)c2ccc(C(=O)C(C)(C)Cl)cc2)cc1 | 93 |
| CN1CCN(c2cccc3ccc(Nc4ncccc4N)cc23)CC1 | 198 to 200 |
| Nc1nnc2c3c(c(N4CCCCC4)nn12)CCCC3 | 230 to 232 |
| CCCc1c(OCCCCCc2c(Cl)c(Cl)cc(OC)c2OC)ccc(C(=O)O)c1O | 152 to 154 |
| COc1ccc2c(=O)c(-c3ccccc3)coc2c1 | 156 to 158 |
| O=C(O)c1ccc(=O)n(-c2ccccc2)c1 | 115 to 120 |
| Cc1[nH]cnc1CSCCNC1=C([N+](=O)[O-])CCN1 | 208 |
| O=C(Nc1nc(C2CC2)no1)C(c1ccccc1)c1ccccc1 | 163 |
| O=S(=O)(F)C=CNc1ccc(Cl)cc1 | 61 to 63 |
| CCCc1nc2c(N)nc3ccccc3c2n1CCCC1(O)CCCCC1 | 200 to 202 |
| O=C(c1c[nH]c2cc(OCc3ccc(F)cc3)ccc12)C1CSC(c2cccnc2)N1 (centres undefined) | 185 to 186 |
| N#Cc1cccc(Cc2c(-c3ccc(OC(F)F)c(OC4CC4)c3)[nH]c3cn[nH]c(=O)c23)c1 | 130 to 135 |
| C[C@H](NC(=O)Cc1cc(F)cc(F)c1)C(=O)N[C@@H]1C(=O)Nc2ccccc2S[C@@H]1c1ccc(Br)s1 | 139 to 140 |
| CCCCc1c(C(=O)OCC)[nH]c2cccc(SC)c2c1=O | 80 |
| CCOC(=O)C(C)(C)Oc1ccc(CCNC(=O)C(C)(C)Oc2cccc(OC)c2)cc1 | 68 to 69 |
| CCOC(=O)C(N)Cc1c(OCC)noc1C(=O)O (racemic) | 159 to 161 |
| CCc1cn(C2CC(O)C(CO)O2)c(=O)nc1NC(=O)c1ccccc1 (centres undefined) | 172 to 174 |
| COC(=O)CS(=O)(=O)C1CCCCC1Sc1cc(C(C)(C)C)c(O)c(C(C)(C)C)c1 (centres undefined) | 93 |
| CC(=O)Oc1ccccc1C(=O)Nc1nc(S(C)=O)cs1 (centres undefined) | 167 to 169 |
| COC(=O)C1=C(C#N)NC(C)=C(C(=O)OC(C)C)C1c1ccccc1[N+](=O)[O-] (centres undefined) | 176 |
